From ChEMBL document CHEMBL2016457, “Discovery of potent and orally bioavailable 17β-hydroxysteroid dehydrogenase type 3 inhibitors” (Bioorg Med Chem, 2012)
Activity calls are given as the source filed them. How the calls were made is not given here.

Key:
[1] = target: T1, Estrogen receptor (Homo sapiens) (UniProt P03372); experiment: Agonist activity at human Estrogen receptor ERalpha expressed in human HeLa cells assessed as DHT-induced response after 40 hrs by luciferase/beta-galactosidase-based reporter gene assay; assay type: functional, cell-based
T1 sequence (whole entry): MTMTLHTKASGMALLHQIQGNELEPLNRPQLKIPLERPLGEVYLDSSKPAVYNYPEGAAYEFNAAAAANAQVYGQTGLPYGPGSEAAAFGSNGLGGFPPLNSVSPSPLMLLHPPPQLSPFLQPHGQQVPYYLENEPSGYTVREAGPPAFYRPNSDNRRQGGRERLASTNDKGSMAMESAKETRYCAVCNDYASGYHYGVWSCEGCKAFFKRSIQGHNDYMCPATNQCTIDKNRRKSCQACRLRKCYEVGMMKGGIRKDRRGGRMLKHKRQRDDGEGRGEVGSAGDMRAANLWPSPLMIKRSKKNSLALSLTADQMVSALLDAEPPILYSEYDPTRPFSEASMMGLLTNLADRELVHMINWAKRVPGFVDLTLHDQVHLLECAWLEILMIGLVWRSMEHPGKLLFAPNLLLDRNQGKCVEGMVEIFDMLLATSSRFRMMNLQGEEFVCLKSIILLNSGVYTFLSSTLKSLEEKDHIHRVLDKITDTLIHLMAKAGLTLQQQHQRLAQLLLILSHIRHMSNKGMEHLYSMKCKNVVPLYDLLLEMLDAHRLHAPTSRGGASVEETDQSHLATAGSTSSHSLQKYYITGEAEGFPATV

[2] = target: T2, Glucocorticoid receptor (Homo sapiens) (UniProt P04150); experiment: Agonist activity at human Glucocorticoid receptor expressed in human HeLa cells assessed as DHT-induced response after 40 hrs by luciferase/beta-galactosidase-based reporter gene assay; assay type: functional, cell-based
T2 sequence (whole entry): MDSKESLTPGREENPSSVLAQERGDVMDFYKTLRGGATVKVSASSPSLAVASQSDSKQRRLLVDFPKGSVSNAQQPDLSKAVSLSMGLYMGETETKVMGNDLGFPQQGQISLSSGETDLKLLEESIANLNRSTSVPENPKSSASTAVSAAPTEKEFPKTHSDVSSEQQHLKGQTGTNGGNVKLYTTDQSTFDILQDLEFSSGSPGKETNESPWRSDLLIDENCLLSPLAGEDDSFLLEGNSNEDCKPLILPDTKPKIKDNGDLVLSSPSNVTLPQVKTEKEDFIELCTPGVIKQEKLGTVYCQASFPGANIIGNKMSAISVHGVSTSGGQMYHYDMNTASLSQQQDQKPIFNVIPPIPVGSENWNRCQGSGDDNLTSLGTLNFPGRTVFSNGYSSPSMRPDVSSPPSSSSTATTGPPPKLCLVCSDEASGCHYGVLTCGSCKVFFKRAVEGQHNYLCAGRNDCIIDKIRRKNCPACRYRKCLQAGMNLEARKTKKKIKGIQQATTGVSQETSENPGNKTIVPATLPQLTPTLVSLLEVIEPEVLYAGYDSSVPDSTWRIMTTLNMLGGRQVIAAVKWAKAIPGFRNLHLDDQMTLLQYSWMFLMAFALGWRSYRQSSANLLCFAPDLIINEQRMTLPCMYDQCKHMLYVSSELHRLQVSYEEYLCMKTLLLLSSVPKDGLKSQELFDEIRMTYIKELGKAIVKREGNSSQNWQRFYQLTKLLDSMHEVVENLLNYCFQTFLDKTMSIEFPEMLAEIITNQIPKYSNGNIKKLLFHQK

[3] = target: T3, 17-beta-hydroxysteroid dehydrogenase type 2 (Homo sapiens) (UniProt P37059); experiment: Inhibition of human recombinant 17-beta-HSD2 expressed in human HeLa cells using estradiol as substrate preincubated for 30 mins prior substrate addition measured after 120 mins by spectrophotometry; assay type: cell-based
T3 sequence (whole entry): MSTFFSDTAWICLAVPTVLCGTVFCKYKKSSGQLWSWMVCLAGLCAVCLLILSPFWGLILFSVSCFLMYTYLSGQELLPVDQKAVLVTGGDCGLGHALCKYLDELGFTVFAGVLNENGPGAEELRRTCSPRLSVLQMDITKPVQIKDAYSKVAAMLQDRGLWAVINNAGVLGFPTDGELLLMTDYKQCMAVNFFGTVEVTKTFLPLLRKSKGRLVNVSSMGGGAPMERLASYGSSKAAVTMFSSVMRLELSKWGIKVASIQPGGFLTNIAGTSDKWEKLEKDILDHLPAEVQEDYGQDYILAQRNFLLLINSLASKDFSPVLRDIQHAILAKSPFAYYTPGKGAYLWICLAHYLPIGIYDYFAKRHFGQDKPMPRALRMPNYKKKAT

[4] = target: T1, Estrogen receptor (Homo sapiens); experiment: Antagonist activity at human ERalpha receptor expressed in human HeLa cells assessed as inhibition of DHT-induced response after 40 hrs by luciferase/beta-galactosidase-based reporter gene assay; assay type: functional, cell-based
[5] = target: T4, 17-beta-hydroxysteroid dehydrogenase type 3 (Homo sapiens, UniProt P37058)
T4 sequence (P37058 whole entry): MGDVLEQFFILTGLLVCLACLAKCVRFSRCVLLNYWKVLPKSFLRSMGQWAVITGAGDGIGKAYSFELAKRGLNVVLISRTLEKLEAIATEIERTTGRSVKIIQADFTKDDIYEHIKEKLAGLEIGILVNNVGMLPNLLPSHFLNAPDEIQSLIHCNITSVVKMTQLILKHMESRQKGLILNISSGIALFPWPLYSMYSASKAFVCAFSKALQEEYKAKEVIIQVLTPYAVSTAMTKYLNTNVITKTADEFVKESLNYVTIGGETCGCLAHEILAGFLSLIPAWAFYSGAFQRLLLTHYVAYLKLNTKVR
Description: Inhibition of human recombinant 17-beta-HSD3 expressed in human HeLa cells using androstenedione as substrate preincubated for 30 mins prior substrate addition measured after 120 mins by spectrophotometry

[6] = target: T5, Androgen receptor (Homo sapiens) (UniProt P10275); experiment: Antagonist activity at human androgen receptor expressed in human HeLa cells assessed as inhibition of DHT-induced response after 40 hrs by luciferase/beta-galactosidase-based reporter gene assay; assay type: functional, cell-based
T5 sequence (whole entry): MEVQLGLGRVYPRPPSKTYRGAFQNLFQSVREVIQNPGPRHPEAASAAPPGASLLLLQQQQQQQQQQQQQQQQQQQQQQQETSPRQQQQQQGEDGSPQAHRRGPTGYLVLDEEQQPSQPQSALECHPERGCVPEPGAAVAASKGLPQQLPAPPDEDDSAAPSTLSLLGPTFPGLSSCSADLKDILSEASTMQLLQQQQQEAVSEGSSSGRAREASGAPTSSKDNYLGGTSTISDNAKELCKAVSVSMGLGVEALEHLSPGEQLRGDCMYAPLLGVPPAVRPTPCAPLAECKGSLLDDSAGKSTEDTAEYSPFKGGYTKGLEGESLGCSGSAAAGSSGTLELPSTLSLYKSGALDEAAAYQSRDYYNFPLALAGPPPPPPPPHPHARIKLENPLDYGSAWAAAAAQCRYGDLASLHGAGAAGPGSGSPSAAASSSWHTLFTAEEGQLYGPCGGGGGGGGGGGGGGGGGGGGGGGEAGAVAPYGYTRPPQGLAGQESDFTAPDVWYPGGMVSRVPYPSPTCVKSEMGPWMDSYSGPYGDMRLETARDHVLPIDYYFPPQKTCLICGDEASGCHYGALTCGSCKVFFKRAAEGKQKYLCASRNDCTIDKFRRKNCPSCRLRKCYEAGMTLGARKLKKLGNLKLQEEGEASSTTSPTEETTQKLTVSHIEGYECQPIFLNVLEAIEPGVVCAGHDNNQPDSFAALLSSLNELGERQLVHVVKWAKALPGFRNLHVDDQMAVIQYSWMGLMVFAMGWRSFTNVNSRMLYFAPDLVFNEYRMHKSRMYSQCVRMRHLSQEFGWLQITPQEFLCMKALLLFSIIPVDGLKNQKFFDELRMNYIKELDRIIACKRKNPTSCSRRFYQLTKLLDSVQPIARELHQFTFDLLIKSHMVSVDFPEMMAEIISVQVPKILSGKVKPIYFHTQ

[7] = target: T2, Glucocorticoid receptor (Homo sapiens); experiment: Antagonist activity at human GR receptor expressed in human HeLa cells assessed as inhibition of DHT-induced response after 40 hrs by luciferase/beta-galactosidase-based reporter gene assay; assay type: functional, cell-based
[8] = target: T6, 17-beta-hydroxysteroid dehydrogenase type 1 (Homo sapiens) (UniProt P14061); experiment: Inhibition of human recombinant 17-beta-HSD1 expressed in human HeLa cells using estrone as substrate preincubated for 30 mins prior substrate addition measured after 120 mins by spectrophotometry; assay type: cell-based
T6 sequence (whole entry): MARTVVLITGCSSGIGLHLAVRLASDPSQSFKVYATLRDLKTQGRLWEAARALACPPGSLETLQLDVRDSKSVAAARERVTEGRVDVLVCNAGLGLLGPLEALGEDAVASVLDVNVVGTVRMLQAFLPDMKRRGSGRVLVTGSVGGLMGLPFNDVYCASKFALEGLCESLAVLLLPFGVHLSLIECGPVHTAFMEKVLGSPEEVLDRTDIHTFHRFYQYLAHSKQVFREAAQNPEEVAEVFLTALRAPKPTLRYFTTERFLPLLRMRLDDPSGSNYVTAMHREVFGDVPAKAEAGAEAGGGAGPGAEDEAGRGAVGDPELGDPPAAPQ

[9] = target: T5, Androgen receptor (Homo sapiens); experiment: Agonist activity at human androgen receptor expressed in human HeLa cells assessed as DHT-induced response after 40 hrs by luciferase/beta-galactosidase-based reporter gene assay; assay type: functional, cell-based

SMILES	Activity [1]	Activity [2]	inhibition [3]	Activity [4]	IC50 [5] [µM]	Activity [6]	Activity [7]	inhibition [8]	Activity [9]
COc1ccccc1N1C(=O)/C(=C/c2ccc(O)c(Br)c2)OC1=S	inactive	inactive	inactive	inactive	0.06	inactive	inactive	inactive	inactive
COc1ccc(N2C(=O)/C(=C/c3ccc(O)cn3)OC2=S)cc1	inactive	inactive	inactive	inactive	0.09	inactive	inactive	inactive	inactive
O=C1/C(=C/c2ccc(O)c(Br)c2)SC(=S)N1C1CCOCC1	inactive	inactive	inactive	inactive	0.075	inactive	inactive	inactive	inactive
O=C1/C(=C/c2ccc(O)c(Br)c2)SC(=S)N1C1CCCCC1	inactive	inactive	inactive	inactive	0.003	inactive	inactive	inactive	inactive
COc1ccc(N2C(=O)/C(=C/c3ccc(O)c(OC)c3)OC2=S)cc1	inactive	inactive	inactive	inactive	0.27	inactive	inactive	inactive	inactive
CS(=O)(=O)c1ccc(N2C(=O)O/C(=C\c3ccc(O)c(Br)c3)C2=O)cc1	inactive	inactive	inactive	inactive	0.9	inactive	inactive	inactive	inactive
COCCN1C(=O)/C(=C/c2ccc(O)c(Br)c2)SC1=S	inactive	inactive	inactive	inactive	0.19	inactive	inactive	inactive	inactive
CN(C)C(=O)c1ccc(N2C(=O)O/C(=C\c3ccc(O)c(Br)c3)C2=O)cc1	inactive	inactive	inactive	inactive	0.065	inactive	inactive	inactive	inactive
O=C1/C(=C/c2ccc(O)c(Br)c2)OC(=S)N1c1ccc2c(c1)OCO2	inactive	inactive	inactive	inactive	0.012	inactive	inactive	inactive	inactive
COc1ccc(N2C(=O)/C(=C/c3ccc(O)c(F)c3)OC2=S)cc1	inactive	inactive	inactive	inactive	0.002	inactive	inactive	inactive	inactive
O=C1/C(=C/c2ccc(O)c(Br)c2)OC(=S)N1c1ccc(Cl)cc1	inactive	inactive	inactive	inactive	0.006	inactive	inactive	inactive	inactive
